“And” between values parts separate entries of the source, which are not always exact repeats. Identical values can stand only once. HELM strings list units from the 5' end as sugar, base in round brackets, then linkage (d deoxyribose, r ribose, m 2'-O-methyl, p phosphodiester). Strings are as the collection lists them; they lack the last nucleoside at the 3' end of the tested compound. [moe] = 2'-O-(2-methoxyethyl) (MOE); [sp] = phosphorothioate linkage; [m5C] = 5-methylcytosine

The data set deals with SMN2. The data set can be described thus: mouse, dose not given. The following applies: ASO.
On to “RNA1{[moe](A)[sp].[moe]([m5C])p.[moe](T)p.[moe](T)p.[moe](T)[sp].[moe]([m5C])[sp].[moe](A)[sp].[moe](T)[sp].[moe](A)[sp].[moe](A)[sp].[moe](T)[sp].[moe](G)[sp].[moe]([m5C])p.[moe](T)p.[moe](G)[sp].[moe](G)}$$$$ (last 3' nucleoside missing)”, for which the 3 h FOB score is 0 score 0-7.

Regarding “RNA1{[moe](A)[sp].[moe]([m5C])p.[moe](T)p.[moe](T)[sp].[moe](T)[sp].[moe]([m5C])[sp].[moe](A)[sp].[moe](T)[sp].[moe](A)[sp].[moe](A)[sp].[moe](T)[sp].[moe](G)[sp].[moe]([m5C])p.[moe](T)p.[moe](G)[sp].[moe](G)}$$$$ (last 3' nucleoside missing)”, the 3 h FOB score is 0 score 0-7. Consider “RNA1{[moe](A)[sp].[moe]([m5C])[sp].[moe](T)[sp].[moe](T)[sp].[moe](T)[sp].[moe]([m5C])[sp].[moe](A)[sp].[moe](T)[sp].[moe](A)[sp].[moe](A)[sp].[moe](T)[sp].[moe](G)[sp].[moe]([m5C])[sp].[moe](T)[sp].[moe](G)}$$$$ (last 3' nucleoside missing)”, for which the 3 h FOB score came out at 3.75 score 0-7. In the case of “RNA1{[moe](A)[sp].[moe](T)p.[moe](T)[sp].[moe]([m5C])[sp].[moe](A)[sp].[moe]([m5C])[sp].[moe](T)[sp].[moe](T)[sp].[moe](T)[sp].[moe]([m5C])p.[moe](A)[sp].[moe](T)[sp].[moe](A)[sp].[moe](A)[sp].[moe](T)[sp].[moe](G)[sp].[moe]([m5C])[sp].[moe](T)[sp].[moe](G)}$$$$ (last 3' nucleoside missing)” it was 3.25 score 0-7; in that of “RNA1{[moe]([m5C])[sp].[moe](A)[sp].[moe]([m5C])[sp].[moe](T)[sp].[moe](T)[sp].[moe](T)[sp].[moe]([m5C])[sp].[moe](A)[sp].[moe](T)[sp].[moe](A)[sp].[moe](A)[sp].[moe](T)[sp].[moe](G)[sp].[moe]([m5C])p.[moe](T)p.[moe](G)[sp].[moe](G)}$$$$ (last 3' nucleoside missing)”, 0 score 0-7. In the case of “RNA1{[moe]([m5C])[sp].[moe](T)p.[moe](T)p.[moe](T)[sp].[moe]([m5C])[sp].[moe](A)[sp].[moe](T)[sp].[moe](A)[sp].[moe](A)[sp].[moe](T)[sp].[moe](G)[sp].[moe]([m5C])p.[moe](T)p.[moe](G)[sp].[moe](G)}$$$$ (last 3' nucleoside missing)” it was 0.25 score 0-7. With “RNA1{[moe](T)[sp].[moe]([m5C])[sp].[moe](A)[sp].[moe]([m5C])[sp].[moe](T)[sp].[moe](T)[sp].[moe](T)[sp].[moe]([m5C])[sp].[moe](A)[sp].[moe](T)[sp].[moe](A)[sp].[moe](A)[sp].[moe](T)p.[moe](G)[sp].[moe]([m5C])p.[moe](T)[sp].[moe](G)[sp].[moe](G)}$$$$ (last 3' nucleoside missing)”, the 3 h FOB score is 1 score 0-7 and 2 score 0-7 and 1.25 score 0-7 (2×). In the case of “RNA1{[moe](A)[sp].[moe]([m5C])[sp].[moe](T)[sp].[moe](T)[sp].[moe](T)[sp].[moe]([m5C])[sp].[moe](A)[sp].[moe](T)[sp].[moe](A)p.[moe](A)p.[moe](T)p.[moe](G)p.[moe]([m5C])[sp].[moe](T)[sp].[moe](G)[sp].[moe](G)}$$$$ (last 3' nucleoside missing)” it was 0 score 0-7; in that of “RNA1{[moe](T)[sp].[moe]([m5C])[sp].[moe](A)[sp].[moe]([m5C])[sp].[moe](T)[sp].[moe](T)[sp].[moe](T)[sp].[moe]([m5C])p.[moe](A)[sp].[moe](T)[sp].[moe](A)[sp].[moe](A)[sp].[moe](T)[sp].[moe](G)[sp].[moe]([m5C])[sp].[moe](T)[sp].[moe](G)}$$$$ (last 3' nucleoside missing)”, 4.25 score 0-7; in that of “RNA1{[moe](A)[sp].[moe](T)p.[moe](T)p.[moe]([m5C])[sp].[moe](A)[sp].[moe]([m5C])[sp].[moe](T)[sp].[moe](T)[sp].[moe](T)[sp].[moe]([m5C])[sp].[moe](A)[sp].[moe](T)[sp].[moe](A)[sp].[moe](A)[sp].[moe](T)[sp].[moe](G)[sp].[moe]([m5C])[sp].[moe](T)[sp].[moe](G)}$$$$ (last 3' nucleoside missing)”, 3.25 score 0-7. In the case of “RNA1{[moe](A)[sp].[moe]([m5C])[sp].[moe](T)[sp].[moe](T)[sp].[moe](T)[sp].[moe]([m5C])[sp].[moe](A)p.[moe](T)p.[moe](A)p.[moe](A)p.[moe](T)[sp].[moe](G)[sp].[moe]([m5C])[sp].[moe](T)[sp].[moe](G)[sp].[moe](G)}$$$$ (last 3' nucleoside missing)” it was 0.25 score 0-7. The figure for “RNA1{[moe]([m5C])[sp].[moe](T)p.[moe](T)p.[moe](T)p.[moe]([m5C])[sp].[moe](A)[sp].[moe](T)[sp].[moe](A)[sp].[moe](A)[sp].[moe](T)[sp].[moe](G)p.[moe]([m5C])p.[moe](T)p.[moe](G)[sp].[moe](G)}$$$$ (last 3' nucleoside missing)” is 0 score 0-7. As for “RNA1{[moe](A)[sp].[moe](T)[sp].[moe](T)[sp].[moe]([m5C])[sp].[moe](A)[sp].[moe]([m5C])[sp].[moe](T)[sp].[moe](T)[sp].[moe](T)[sp].[moe]([m5C])p.[moe](A)[sp].[moe](T)[sp].[moe](A)[sp].[moe](A)[sp].[moe](T)[sp].[moe](G)[sp].[moe]([m5C])[sp].[moe](T)[sp].[moe](G)}$$$$ (last 3' nucleoside missing)”, the 3 h FOB score came to 4 score 0-7. “RNA1{[moe]([m5C])[sp].[moe](A)p.[moe]([m5C])p.[moe](T)p.[moe](T)[sp].[moe](T)[sp].[moe]([m5C])[sp].[moe](A)[sp].[moe](T)[sp].[moe](A)[sp].[moe](A)[sp].[moe](T)[sp].[moe](G)[sp].[moe]([m5C])p.[moe](T)p.[moe](G)[sp].[moe](G)}$$$$ (last 3' nucleoside missing)”: the 3 h FOB score turned out to be 0 score 0-7.

Regarding “RNA1{[moe](A)[sp].[moe](T)[sp].[moe](T)[sp].[moe]([m5C])[sp].[moe](A)[sp].[moe]([m5C])[sp].[moe](T)[sp].[moe](T)[sp].[moe](T)[sp].[moe]([m5C])[sp].[moe](A)[sp].[moe](T)[sp].[moe](A)[sp].[moe](A)[sp].[moe](T)[sp].[moe](G)[sp].[moe]([m5C])[sp].[moe](T)[sp].[moe](G)}$$$$ (last 3' nucleoside missing)”, the 3 h FOB score was 4 score 0-7. Take “RNA1{[moe](T)[sp].[moe]([m5C])[sp].[moe](A)[sp].[moe]([m5C])[sp].[moe](T)[sp].[moe](T)[sp].[moe](T)[sp].[moe]([m5C])[sp].[moe](A)[sp].[moe](T)[sp].[moe](A)[sp].[moe](A)[sp].[moe](T)[sp].[moe](G)p.[moe]([m5C])p.[moe](T)[sp].[moe](G)}$$$$ (last 3' nucleoside missing)”: the 3 h FOB score was 3.5 score 0-7.

With “RNA1{[moe]([m5C])[sp].[moe](T)[sp].[moe](T)[sp].[moe](T)p.[moe]([m5C])[sp].[moe](A)[sp].[moe](T)[sp].[moe](A)p.[moe](A)[sp].[moe](T)[sp].[moe](G)[sp].[moe]([m5C])p.[moe](T)[sp].[moe](G)[sp].[moe](G)}$$$$ (last 3' nucleoside missing)”, the 3 h FOB score is 0.75 score 0-7.

“RNA1{[moe]([m5C])[sp].[moe](A)[sp].[moe]([m5C])[sp].[moe](T)[sp].[moe](T)[sp].[moe](T)[sp].[moe]([m5C])[sp].[moe](A)[sp].[moe](T)[sp].[moe](A)[sp].[moe](A)p.[moe](T)p.[moe](G)p.[moe]([m5C])p.[moe](T)[sp].[moe](G)[sp].[moe](G)}$$$$ (last 3' nucleoside missing)” gave a 3 h FOB score of 0 score 0-7. On to “RNA1{[moe]([m5C])[sp].[moe](A)[sp].[moe]([m5C])[sp].[moe](T)[sp].[moe](T)p.[moe](T)p.[moe]([m5C])p.[moe](A)p.[moe](T)[sp].[moe](A)[sp].[moe](A)[sp].[moe](T)[sp].[moe](G)[sp].[moe]([m5C])[sp].[moe](T)[sp].[moe](G)[sp].[moe](G)}$$$$ (last 3' nucleoside missing)”, for which the 3 h FOB score was 0 score 0-7. In the case of “RNA1{[moe]([m5C])[sp].[moe](A)[sp].[moe]([m5C])p.[moe](T)p.[moe](T)p.[moe](T)p.[moe]([m5C])[sp].[moe](A)[sp].[moe](T)[sp].[moe](A)[sp].[moe](A)[sp].[moe](T)[sp].[moe](G)[sp].[moe]([m5C])[sp].[moe](T)[sp].[moe](G)[sp].[moe](G)}$$$$ (last 3' nucleoside missing)” it was 0 score 0-7; in that of “RNA1{[moe](A)[sp].[moe]([m5C])[sp].[moe](T)[sp].[moe](T)[sp].[moe](T)[sp].[moe]([m5C])[sp].[moe](A)[sp].[moe](T)[sp].[moe](A)[sp].[moe](A)[sp].[moe](T)[sp].[moe](G)[sp].[moe]([m5C])[sp].[moe](T)[sp].[moe](G)[sp].[moe](G)[sp].[moe]([m5C])[sp].[moe](A)}$$$$ (last 3' nucleoside missing)”, 0 score 0-7; in that of “RNA1{[moe]([m5C])[sp].[moe](A)p.[moe]([m5C])p.[moe](T)[sp].[moe](T)[sp].[moe](T)[sp].[moe]([m5C])[sp].[moe](A)[sp].[moe](T)[sp].[moe](A)[sp].[moe](A)[sp].[moe](T)[sp].[moe](G)[sp].[moe]([m5C])[sp].[moe](T)[sp].[moe](G)[sp].[moe](G)}$$$$ (last 3' nucleoside missing)”, 0 score 0-7. The figure for “RNA1{[moe]([m5C])[sp].[moe](A)[sp].[moe]([m5C])p.[moe](T)[sp].[moe](T)[sp].[moe](T)[sp].[moe]([m5C])[sp].[moe](A)[sp].[moe](T)p.[moe](A)[sp].[moe](A)[sp].[moe](T)[sp].[moe](G)[sp].[moe]([m5C])[sp].[moe](T)p.[moe](G)[sp].[moe](G)}$$$$ (last 3' nucleoside missing)” is 0 score 0-7.

For the origin of these results see the OligoGym collection.
